Read-outs that look alike come from different tables or passages of the source.
Key:
[1] = target: T1, cCaSR (Felis catus, UniProt C7FF08); assay: cCaSR PAM luminescence assay, double injection with 0.5 mM CaCl2, HEK293/T-REx/natClytin-cCaSR
T1 sequence (C7FF08 1-1081): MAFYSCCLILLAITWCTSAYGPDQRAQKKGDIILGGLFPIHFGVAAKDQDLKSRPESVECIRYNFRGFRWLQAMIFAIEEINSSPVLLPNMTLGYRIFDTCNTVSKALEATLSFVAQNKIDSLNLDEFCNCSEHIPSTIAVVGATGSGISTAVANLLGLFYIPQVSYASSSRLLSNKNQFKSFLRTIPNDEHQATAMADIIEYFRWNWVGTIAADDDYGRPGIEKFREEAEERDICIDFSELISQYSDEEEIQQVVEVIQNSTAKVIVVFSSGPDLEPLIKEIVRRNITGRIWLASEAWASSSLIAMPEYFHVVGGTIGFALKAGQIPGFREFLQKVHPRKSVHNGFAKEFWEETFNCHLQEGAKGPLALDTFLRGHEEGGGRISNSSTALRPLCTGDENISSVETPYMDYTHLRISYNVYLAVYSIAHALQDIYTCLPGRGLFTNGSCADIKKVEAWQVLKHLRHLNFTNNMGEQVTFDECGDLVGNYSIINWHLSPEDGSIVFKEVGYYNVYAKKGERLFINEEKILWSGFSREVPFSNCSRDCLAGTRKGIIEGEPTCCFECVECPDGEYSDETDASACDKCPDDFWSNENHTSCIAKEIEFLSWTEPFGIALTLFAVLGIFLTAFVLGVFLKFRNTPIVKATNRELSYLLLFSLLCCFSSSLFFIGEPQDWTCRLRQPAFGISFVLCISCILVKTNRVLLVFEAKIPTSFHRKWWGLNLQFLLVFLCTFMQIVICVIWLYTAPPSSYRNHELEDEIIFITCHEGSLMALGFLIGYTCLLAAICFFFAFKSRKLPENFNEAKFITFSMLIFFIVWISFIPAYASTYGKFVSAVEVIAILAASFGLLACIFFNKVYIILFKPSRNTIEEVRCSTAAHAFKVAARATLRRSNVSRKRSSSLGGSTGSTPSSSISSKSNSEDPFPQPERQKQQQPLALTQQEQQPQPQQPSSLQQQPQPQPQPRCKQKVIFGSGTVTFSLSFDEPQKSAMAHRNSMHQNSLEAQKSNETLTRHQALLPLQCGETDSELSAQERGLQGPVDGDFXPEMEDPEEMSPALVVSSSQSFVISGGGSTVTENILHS
Method: (§1) The cCaSR expression constructs were stably-transfected in the mammalian cell line, HEK293/ T-REx/ natClytin. Transfections were performed by electroporation, following standard methodologies. Stably-transfected target and mock pools were obtained after 2–3 weeks of antibiotic selection, and clones were selected for testing. In order to evaluate the activity of each clone, 10 mM Calcium was injected onto the cells and the resulting luminescence was measured.
(§2) All compounds screened on the receptor were analysed in parallel with Calcium, on the HEK293/ T-REx/ natClytin-cCaSR or hCaSR stable or transient cell lines. Prior to the measurements, the cells were incubated with 10 µM of photoprotein substrate, Coelenterazine, prepared in Calcium-free Tyrode’s buffer at 37 °C for 3–4 h. All the data was captured using a FLIPR Tetra (Molecular Devices). A single or double injection protocol was used to capture the data for potential agonists and PAMs, respectively. The compounds tested were all prepared at desired concentration in Calcium-Free Tyrode’s buffer supplemented with 0.5% DMSO. For the activity determination of potential agonists, the single injection protocol was used, with CaCl2 as the positive control for each run. Each compound was injected into specific wells and the luminescence signal was measured for 1 min. for each compound. For potential PAMs, the double injection protocol was used. The first injection was identical to the one described above for potential agonists. A 20 min. resting period followed the first injection and a second injection of 0.5 mM CaCl2 in Calcium-free Tyrode’s buffer was injected to all wells, and the resulting luminescence signal was again measured for 1 min for each compound.
The half maximal effective concentrations (EC50) were identified by nonlinear regression using a variable slope model with the equation Y = Bottom + (X^Hillslope)*(Top–Bottom)/ (X^HillSlope + EC50^HillSlope), where Y is the agonist concentration, Top and Bottom are the plateaus in the same units as Y and HillSlope is the Slope factor or Hill slope. All calculations and plots were done using GraphPad Prism 8. […] In these cases the EC50 was noted as being higher than the maximum concentration used in the assay.

[2] = target: T1, cCaSR
Method: as §1, §2
Dose–response curves were established by plotting signal amplitudes versus agonist concentration. For each compound, the % of maximum response was determined using a standard formula as follows:
The half maximal effective concentrations (EC50) were identified by nonlinear regression using a variable slope model with the equation Y = Bottom + (X^Hillslope)*(Top–Bottom)/ (X^HillSlope + EC50^HillSlope), where Y is the agonist concentration, Top and Bottom are the plateaus in the same units as Y and HillSlope is the Slope factor or Hill slope. […] In these cases the EC50 was noted as being higher than the maximum concentration used in the assay.

[3] = Supplementary Table I, PAM assay, dash = no activity
[4] = Supplementary Table I, agonist assay, dash = no activity
[5] = agonist assay, stable inducible cCaSR line, > 0.01 M = maximal response not reached
[6] = read-out: EC50 Ago, Supplementary Table I, agonist assay, > 0.01 M = maximal response not reached
[7] = read-out: cCaSR activity, agonist assay, stable inducible cCaSR line, at least three wells
[8] = read-out: EC50 PAM, Supplementary Table I, positive allosteric modulator, presence of Ca2+

Row | Compound | EC50 PAM (M) [1, 3] | EC50 Ago (M) [2, 4] | also measured
1 | N[C@@H](CCCCNC(=O)CC[C@H](N)C(=O)O)C(=O)O [γ-Glu-Lys] | - | - | 
2 | CNC(=N)NCCC[C@H](N)C(=O)O [NG-methyl L Arginine] | - | - | 
3 | NC(=O)CC[C@H](NC(=O)[C@H](CCC(=O)O)NC(=O)CC[C@H](N)C(=O)O)C(=O)O [γ-Glu-Glu-Gln] | - |  | 
4 | O=P(O)(O)C(Cl)(Cl)P(=O)(O)O [Dichloromethylenediphosphonic acid] | - | - | 
5 | Cc1ccc(C(C)(O)c2nc3ccccc3s2)c(C)c1 (stereo not shown) [AC-265347, reference compound] |  | - | 
6 | O.O.[Ba+2].[Cl-].[Cl-] [Ba^2+, Barium chloride dihydrate] |  |  | EC50 PAM (M) [1]: -
7 | [Ba+2].[Cl-].[Cl-] [Ba^2+, Barium chloride dihydrate] |  |  | EC50 [2]: 1.17 mM; EC50 ([2]; read-out: EC50 Ago): 1.17 mM; EC50 ([2]; read-out: cCaSR activity): 1 to 10 mM
8 | [Gd+3] [Gd^3+, Gadolinium ion Gd^3+] | - |  | EC50 [2, 5]: 0.295 mM; EC50 [2, 6]: 0.295 mM; EC50 [2, 7]: < 1 mM
9 | Cc1ccc(C2(CCNC(C)c3ccc(Cl)cc3)CCOC(C)(C)C2)cc1 (stereo not shown) [Vitas M Labs Express Pick - STK530456] |  | - | EC50 [1, 8]: 26.1 µM
10 | NC(CCCC(N)C(=O)O)C(=O)O (stereo not shown) [2,6-Diaminopimelic acid] | - | - | 
11 | C[C@@H](O)C(=O)SC[C@H](NC(=O)CC[C@H](N)C(=O)O)C(=O)NCC(=O)O [S-Lactoylglutathione] | - |  | 
12 | CO[C@H]1[C@H](O)[C@@H](CO)OC(O)[C@@H]1O (stereo partly drawn) [3-O-Methyl-D-glucopyranose] | - | - | 
13 | CC(C)(Cc1ccc2ccccc2c1)NC[C@@H](O)COc1cccc(Cl)c1C#N [NPS 2143, reference compound] | - | - | 
14 | NCCCC[C@@H](N)C(=O)O [D-Lysine] | - | - | 
15 | COC(=O)CC[C@H](N)C(=O)O [L-Glutamic Acid 5-Methyl Ester] | - | - | 
16 | CCOC(=O)CNC(=O)[C@H](CS)NC(=O)CC[C@H](N)C(=O)O [γ-Glu-Cys-Gly-Oet] | - | - | 
17 | N[C@@H](CSSC[C@H](N)C(=O)O)C(=O)O [Cystine (disufide)] | - | - | 
18 | CC(C)C1NC(C(=O)O)Cc2c1[nH]c1ccccc21 (stereo not shown) [1-isopropyl-2,3,4,9-tetrahydro-1H-pyrido[3,4-b]indole-3-carboxylic acid] | - | - | 
19 | C[C@@H](NCCCc1cccc(C(F)(F)F)c1)c1cccc2ccccc12 [Cinacalcet, reference compound] |  | - | EC50 [1]: 0.746 µM
20 | N[C@H](CC(=O)O)C(=O)O [D-Aspartic Acid] | - | - | 
21 | C1N2CN3CN1CN(C2)C3 [Hexamethylenetetramine] | - | - | 
22 | NCCC[C@H](N)C(=O)O [L-Ornithine] | - | - | 
23 | NCCCCCN [Cadaverine] | - | - | 
24 | N[C@@H](CCP(=O)(O)O)C(=O)O [L-2-Amino-4-phosphonobutyric acid] | - | - | 

Row | Compound | EC50 PAM (M) [1, 3] | EC50 Ago (M) [2, 4] | also measured
25 | COC(=O)[C@@H](N)CCCNC(=N)N[N+](=O)[O-].Cl [Nω-Nitro-L-arginine methyl ester hydrochloride] | - | - | 
26 | O=C(O)[C@@H]1C[C@@H](O)CN1 [Hydroxyproline] | - | - | 
27 | Poly-L-histidine | - | - | 
28 | O=C([O-])[O-].O=C([O-])[O-].O=C([O-])[O-].[Ce+3].[Ce+3] [Cerium(III) carbonate] | - | - | 
29 | NCCNCCNCCN [Triethylenetetramine] |  |  | EC50 Ago (M) [2]: -
30 | CC(=O)[O-].CC(=O)[O-].CC(=O)[O-].O.[Tb+3] [Tb^3+, Terbium(III) acetate hydrate] | - |  | EC50 [2, 5]: 0.175 mM; EC50 [2, 6]: 0.175 mM; EC50 [2, 7]: < 1 mM
31 | NC(=O)C[C@H](N)C(=O)O [L-Asparagine] | - | - | 
32 | OC[C@H]1O[C@@](CO)(O[C@H]2O[C@H](CO)[C@@H](O)[C@H](O)[C@H]2O)[C@@H](O)[C@@H]1O [Sucrose] | - | - | 
33 | NCCCNCCCCNCCCN [Spermine] | - |  | agonist activity on cCaSR (in words) [2]: agonists
34 | CC(NC1CCc2c(F)cc(Br)cc21)c1ccncc1 (stereo not shown) [Enamine Screening - Z1436888168] |  | - | EC50 [1, 8]: 45.7 µM
35 | CC(NCC1CCCN(C)C1c1cccs1)c1cc(Cl)c(N)c(Cl)c1 (stereo not shown) [Enamine Screening - Z1532507755] |  | - | EC50 [1, 8]: 8.68 µM
36 | CC(C)C[C@H](N)C(=O)O [L-Leucine] | - | - | 
37 | CC(=O)N1C=Cc2ccccc2C1CC(=O)NC(C)c1cccc(Br)c1 (stereo not shown) [Enamine Screening - Z336933272] |  | - | EC50 [1, 8]: 12.1 µM
38 | CSCC[C@H](N)C(=O)O [L-Methionine] |  |  | EC50 PAM (M) [1]: -; EC50 Ago (M) [2]: -
39 | N[C@H](CCC(=O)O)C(=O)O [D-Glutamic acid] | - | - | 
40 | N[C@]1(C(=O)O)C[C@H](C(=O)O)C1 [1s,3s-1-aminocyclobutane-1,3-dicarboxylic acid] | - |  | 
41 | [Sr+2] [Sr^2+] | - |  | EC50 [2, 7]: > 10 mM
42 | CC[C@H](C)[C@H](N)C(=O)O [L-Isoleucine] | - | - | 
43 | NC(CCCCCCCCCC(=O)O)C(=O)O (stereo not shown) [2-aminododecanedioic acid] | - | - | 
44 | N[C@@H](CCC(=O)N[C@@H](CCC(=O)O)C(=O)N[C@@H](CCC(=O)O)C(=O)O)C(=O)O [γ-Glu-Glu-Glu] | - |  | 
45 | NC[C@@H]1O[C@H](O[C@H]2[C@@H](O)[C@H](O[C@@H]3[C@@H](O)[C@H](N)C[C@H](N)[C@H]3O[C@H]3O[C@H](CN)[C@@H](O)[C@H](O)[C@H]3N)O[C@@H]2CO)[C@H](N)[C@@H](O)[C@@H]1O [Neomycin, reference compound] | - |  | 
46 | OCC(CNC1CCCOc2cc(Cl)ccc21)Cc1ccccn1 (stereo not shown) [Enamine Screening - Z1589915397] |  | - | EC50 [1, 8]: 122 µM
47 | Poly-L-ornithine | - |  | 
48 | C[C@@H](NCc1cc2ccccc2[nH]1)c1cccc2ccccc12 [Calindol, reference compound] |  | - | 

Reference: paper PMC8131363 (Scientific Reports, 2021)
